Source: patent US12486538B2, “Methods of diagnosing alzheimer's disease and risk of progression to alzheimer's disease” (Loma Linda University Health, priority 2016, dated 2025)
“Also recorded” adds a separate entry of the source.

Key:
[1] = tested on: neuron-differentiated SH-SY5Y cells; assay: LDH release assay in neuron-differentiated SH-SY5Y cells; format: cell-based, human; details: for LDH release, dose-response pattern: increasing concentrations
Protocol: (§1) Rat cortical neurons were dissociated using a papain dissociation kit following manufacturer's instructions (Worthington, NJ; Cat #LK003150). Neurons were cultured in neurobasal medium with B27 supplement with 2 mM glutamine, 50 U/ml penicillin and 50 μg/mL. SH-SY5Y and B103 cells were cultured in DMEM (Sigma Cat #D6429-500M) supplemented with 5% fetal bovine serum. SH-SY5Y cells were differentiated with the addition of 10 μM retinoic acid for 7 days prior to experimentation. LDH assays were conducted with a LDH assay kit following manufacturer's instructions (cat #88954).

[2] = tested on: binding of FOXO1 to the RTKN2 promoter; assay: ChIP, FOXO1 binding to RTKN2 promoter, SH-SY5Y cells; format: cell-based, human; details: 5 μM 27OHC
Protocol: (§2) Chromatin Immunoprecipitation (ChIP) assays were conducted according to standard protocols published by ABcam. Following treatments, cells were incubated with formaldehyde at a final concentration of 0.75% for 10 minutes followed by glycine at a final concentration of 125 mM for an additional 5 minutes. Cells were then washed two times with Phosphate Buffered Saline (PBS) and lysed in FA lysis buffer (50 mM HEPES-KOH PH 7.5, 140 mM NaCl, 1 mM EDTA, 1% Triton X-100, 0.1% Sodium Deoxycholate, 0.1% SDS, protease inhibitors). Resulting cell lysates were sonicated to fragment DNA, spun down, and incubated with antibody conjugated protein A sepharose beads (ThermoFisher cat #101041) overnight with gentile agitation. Following incubation, beads were pelleted, washed three times with FA lysis buffer, and DNA was eluted with elution buffer (1% SDS, 100 mM NaHCO3). Resulting DNA fragments were further purified with a DNA purification kit (Clontech cat #740609.250) prior to qPCR analysis. Antibodies used were anti-APP C-terminus (Sigma #A8717); anti-FOXO1 (Abcam #39670).

[3] = tested on: binding of FOXO1 to the RTKN2 promoter; assay: ChIP, FOXO1 binding to RTKN2 promoter, rat cortical neurons; format: cell-based
Protocol: as §1, with “experimentation.” for “experimentation. LDH assays were conducted with a LDH assay kit following manufacturer's instructions (cat #88954).”
as §2

[4] = tested on: binding of AICD to the MAST4 promoter; assay: ChIP, AICD binding to MAST4 promoter, transfected B103 cells; format: cell-based, rat
Protocol: as §2

[5] = tested on: binding of AICD to the MAST4 promoter; assay: ChIP, AICD binding to MAST4 promoter, SH-SY5Y cells; format: cell-based, human; details: 5 μM 27OHC
Protocol: as §2

[6] = tested on: FOXO1 phosphorylation by MAST4 kinase; assay: MAST4 in vitro kinase assay on immunoprecipitates from treated cells; format: cell-based, human
Protocol: Immunoprecipitations were conducted as outlined by ABcam under non-denaturing conditions.
Kinase activity was measured at 37° C. for 30 minutes in 50 μl kinase buffer (50 mM Tris, pH 7.4, 10 mM MgCl2) supplemented with 50 μM ATP and human recombinant FOXO1 (1 μg; Origene #TP300477). Kinase reactions were run on 4-20% Tris-Glycine polyacrylamide gels (Thermofisher) and byproducts identified with anti phospho-Serine/Threonine antibody (Abcam ab17464).

MAST4 mRNA [7] = assay: qPCR of MAST4 mRNA, SH-SY5Y cells; format: cell-based, human; details: 5 μM 27OHC
Protocol: (§3) RNA was purified using TRIzol LS reagent according to the manufacturer's instructions (Thermofisher cat #10296010).
(§4) mRNA was purified with TRIzol reagent, converted to cDNA with reverse transcriptase according to the manufacturer's instructions and quantified with iTaq Universal SYBR Green Supermix (Bio-Rad cat #1725120). Results were determined using the delta-delta cycle threshold (ct) method.

B103-APP695 cells [8] = assay: LDH release assay in B103 cells stably transfected with APP695; format: cell-based, rat
Protocol: as §1, with “experimentation. Transfections were conducted using Lippofectamine LTX (Thermofisher; cat #A12621) according to the manufacturer's instructions.” for “experimentation.”

RTKN2 mRNA [9] = assay: qPCR of RTKN2 mRNA, transfected B103 cells; format: cell-based, rat; details: B103 with APP695, 5 μM 27OHC
Protocol: as §3, §4

B103-EV cells = assay: LDH release assay in B103 cells with empty vector (lack APP); format: cell-based, rat; details: absence of APP, 18 hours
Protocol: as §1, with “experimentation. Transfections were conducted using Lippofectamine LTX (Thermofisher; cat #A12621) according to the manufacturer's instructions.” for “experimentation.”

RTKN2 mRNA [10] = assay: qPCR of RTKN2 mRNA, rat cortical neurons; format: cell-based
Protocol: as §3, §4

B103-APP695 cells [11] = assay: LIVE/DEAD assay in B103-APP695 cells; format: cell-based, rat; details: 50 μM 27OHC, APP-expressing cells
Protocol: Live dead cell assays were conducted with live dead cell assay kit according to the manufacturer's instructions (Thermofisher #L3224).

MAST4 mRNA [12] = assay: qPCR of MAST4 mRNA, rat cortical neurons; format: cell-based; details: 5 μM 27OHC
Protocol: as §3, §4

MAST4 mRNA [13] = assay: qPCR of MAST4 mRNA, transfected B103 cells; format: cell-based, rat; details: B103 APP695, 5 μM 27OHC
Protocol: as §3, §4

[14] = tested on: binding of FOXO1 to the RTKN2 promoter; assay: ChIP, FOXO1 binding to RTKN2 promoter, transfected B103 cells; format: cell-based, rat; details: B103 expressing APP695, 5 μM 27OHC
Protocol: as §2

MAST4 protein expression = assay: Immunoblot of MAST4 protein, SH-SY5Y cells; format: cell-based, human; details: 5 μM 27OHC
Protocol: (§5) Immunoblotting was conducted as previously described with the following antibodies: APP (Sigma #A8717; Millipore #22C11); MAST4 (GeneTex #GTX87899); FOXO1 (Cell Signaling Technology #2880); RTKN2 (Proteintech #17458-1-AP); caspase-3 (Cell Signaling Technology #9662); caspase-7 (Cell Signaling Technology #9492); actin (Sigma #A5316) (7).

RTKN2 protein expression = assay: Immunoblot of RTKN2 protein, rat cortical neurons; format: cell-based; details: cytoprotective doses, 2.5 and 5 μM 27OHC
Protocol: as §5

[15] = tested on: activated caspase-3, activated caspase-7 and Bax/Bcl2 ratio; assay: Immunoblot of active caspases 3 and 7, Bax, Bcl-2 and RTKN2 in treated cells; format: cell-based
Protocol: as §5

RTKN2 mRNA [16] = assay: qPCR of RTKN2 mRNA, SH-SY5Y cells; format: cell-based, human; details: control siRNA, 5 μM 27OHC
Protocol: as §3, §4

[17] = tested on: binding of AICD to the MAST4 promoter; assay: ChIP, AICD binding to MAST4 promoter, rat cortical neurons; format: cell-based; details: 5 μM 27OHC
Protocol: as §1, with “experimentation.” for “experimentation. LDH assays were conducted with a LDH assay kit following manufacturer's instructions (cat #88954).”
as §2, with “Resulting DNA fragments were further purified with a DNA purification kit (Clontech cat #740609.250) prior to qPCR analysis. Antibodies used were anti-APP C-terminus (Sigma #A8717); anti-FOXO1 (Abcam #39670).” left out

Question: `CC(C)C(O)CC[C@@H](C)[C@H]1CC[C@H]2[C@@H]3CC=C4C[C@@H](O)CC[C@]4(C)[C@H]3CC[C@]12C` (stereo partly drawn) [24OHC, 24-hydroxycholesterol] was tested. Which “LDH release, dose-response pattern” value ([1]; 18 hours) did it give?
Answer: Its value is “had no effect; also recorded: No LDH changes are measurable”.

Question: Which results are given for `C[C@@H](CO)CCC[C@@H](C)[C@H]1CC[C@H]2[C@@H]3CC=C4C[C@@H](O)CC[C@]4(C)[C@H]3CC[C@]12C` [27OHC, 27-hydroxycholesterol]?
Answer: FOXO1 binding to the RTKN2 promoter [2]: decrease of that binding; FOXO1 binding to the RTKN2 promoter: decreased at 5 μM but not 50 μM ([3]; 5 and 50 μM 27OHC, FIG. 3F): confirmed in rat cortical neurons; FOXO1 binding to the RTKN2 promoter ([3]; 15, 25, and 50 μM 27OHC): increasing; FOXO1 binding to the RTKN2 promoter ([3]; cytoprotective doses, 2.5 and 5 μM 27OHC (b174 prints 5 M)): decreased binding of FOXO1 to the RTKN2 promoter; AICD binding to the MAST4 promoter ([4]; B103 expressing APPG700A, 5 μM 27OHC): an effect not seen in cells expressing APPG700A; AICD binding to the MAST4 promoter ([4]; B103 transfected with APP695, 5 μM 27OHC): increased AICD binding to the MAST4 promoter; AICD binding to the MAST4 promoter [5]: AICD does bind to the MAST4 promoter; FOXO1 phosphorylation in MAST4 immunoprecipitates ([6]; cells treated with 5 μM 27OHC): Increased FOXO1 phosphorylation; FOXO1 phosphorylation in MAST4 immunoprecipitates ([6]; cells treated with 50 μM 27OHC): No increase in pSer-FOXO1; cytotoxicity (LDH) ([1]; 15, 25, and 50 μM treatments): increasing cytotoxicity; concentration of maximum protective effect (LDH) ([1]; 18 hours): 5 µM; LDH release compared to baseline (solvent alone) ([1]; concentrations below 10 μM, 18 hours): decreased LDH compared to baseline; cytotoxicity (LDH release) ([1]; higher concentrations (than 10 μM), 18 hours): dose-dependent cytotoxicity; LDH release, dose-response pattern ([1]; 18 hours): biphasic dose-dependent cellular response; MAST4 mRNA levels (MAST4 mRNA [7]): elevated MAST4 mRNA levels; LDH levels (B103-APP695 cells [8]; 5 μM 27OHC): reduced LDH levels; cytotoxicity (LDH) (B103-APP695 cells [8]; doses greater than 10 μM): dose-dependently cytotoxic; LDH levels, dose-response pattern (B103-APP695 cells [8]; presence of APP695, 18 hours): biphasic response comparable to that shown by SH-SY5Y cells; also recorded: biphasic pattern; RTKN2 mRNA (RTKN2 mRNA [9]): RTKN2 was upregulated; LDH levels, dose-response (B103-EV cells): increased LDH levels in a dose-dependent manner; also recorded: Cytotoxicity is dose-dependent; RTKN2 mRNA: upregulated at 5 μM but not 50 μM (RTKN2 mRNA [10]; 5 and 50 μM 27OHC, FIG. 3J): confirmed in rat cortical neurons; RTKN2 mRNA (RTKN2 mRNA [10]; cytoprotective doses, 2.5 and 5 μM 27OHC): increased RTKN2 mRNA; dead/live cell abundance (B103-APP695 cells [11]): protective; MAST4 mRNA levels (MAST4 mRNA [12]): also present in rat primary neurons; MAST4 mRNA levels (MAST4 mRNA [13]): elevated MAST4 mRNA levels; FOXO1 binding to the RTKN2 promoter [14]: FOXO1 binding was also decreased; MAST4 protein expression (MAST4 protein expression): MAST4 protein expression increased; RTKN2 protein expression (RTKN2 protein expression): increased; Bcl-2 ([15]; 5 μM 27OHC): robust increase in Bcl-2; RTKN2 protein ([15]; 5 μM 27OHC): robust increase in Bcl-2 and RTKN2; active forms of caspases 3 and 7 ([15]; 5 μM 27OHC): decrease in active forms of both caspases; Bcl-2 ([15]; 50 μM 27OHC): decreased Bcl-2; active forms of caspases 3 and 7 ([15]; 50 μM 27OHC): increased the active forms of both caspases; RTKN2 mRNA (RTKN2 mRNA [16]): increased RTKN2 mRNA; AICD interaction with the MAST4 promoter [17]: AICD also interacts with the MAST4 promoter
